Laboratory results: patent publication US11541055B2, “Inhibitors of human immunodeficiency virus replication” (ViiV Healthcare UK (No. 5) LIMITED, priority 2018, dated 2023)

Columns and labels:
[1] = Compound cytotoxicity, XTT-based colorimetric assay; type: cell-based; details: human; uninfected MT2 cells, day 4, XTT
Experimental: Compound cytotoxicity and the corresponding CC50 values were determined using the same protocol as described in the antiviral assay except that uninfected cells were used. Cytotoxicity was assessed on day 4 in uninfected MT2 cells by using a XTT (2,3-bis[2-Methoxy-4-nitro-5-sulfophenyl]-2H-tetrazolium-5-carboxyanilide inner salt)-based colorimetric assay (Sigma-Aldrich, St Louis, Mo.).

[2] = test system: recombinant NL4-3 virus (Renilla luciferase) in MT-2 cells; assay: HIV cell culture assay (antiviral activity, luciferase readout); type: cell-based; details: Renilla, NL43
Experimental: HIV cell culture assay—MT-2 cells, 293T cells and the proviral DNA clone of NL4-3 virus were obtained from the NIH AIDS Research and Reference Reagent Program. MT-2 cells were propagated in RPMI 1640 media supplemented with 10% heat inactivated fetal bovine serum (FBS), […]. The 293T cells were propagated in DMEM media supplemented with 10% heat inactivated FBS, […] penicillin G and […] streptomycin. A recombinant NL40.3 proviral clone, in which a section of the nef gene was replaced with the Renilla luciferase gene, was used to make the reference virus used in these studies. The recombinant virus was prepared through transfection of the recombinant NL4-3 proviral clone into 293T cells using Transit-293 Transfection Reagent from Minis Bio LLC (Madison, Wis.). Supernatent was harvested after 2-3 days and the amount of virus present was titered in MT-2 cells using luciferase enzyme activity as a marker by measuring luciferase enzyme activity. Luciferase was quantitated using the EnduRen Live Cell Substrate from Promega (Madison, Wis.). Antiviral activities of compounds toward the recombinant virus were quantified by measuring luciferase activity in MT-2 cells infected for 4-5 days with the recombinant virus in the presence of serial dilutions of the compound.
The 50% effective concentration (EC50) was calculated by using the exponential form of the median effect equation where (Fa)=1/[1+(ED50/drug conc.)m] (Johnson V A, Byington R T. Infectivity Assay. In Techniques in HIV Research. ed. Aldovini A, Walker B D. 71-76. New York: Stockton Press. 1990). The 50% inhibitory concentration (EC50) was calculated by using the exponential form of the median effect equation where percent inhibition=1/[1+(EC50/drug concentration)m], where m is a parameter that reflects the slope of the concentration-response curve.

| Compound | CC50 at 4 days [1] [nM] | EC50 [2] [nM] |
| --- | --- | --- |
| CS(=O)(=O)Nc1nn(CC(F)F)c2c(-n3c([C@H](Cc4cc(F)cc(F)c4)NC(=O)Cn4nc(C(F)F)c5c4C(F)(F)[C@@H]4C[C@H]54)nc4cc(-c5cccc(C(F)(F)F)n5)ccc4c3=O)ccc(Cl)c12 [Example 138, N-[(1S)-1-{3-[4-chloro-1-(2,2-difluoroethyl)-3-methanesulfonamido-1H-indazol-7-yl]-4-oxo-7-(trifluoromethyppyridin-2-yl]-3,4-dihydroquinazolin-2-yl}-2-(3,5-difluorophenyl)ethyl]-2-[(2S,4R)-9-(difluoromethyl)-5,5-difluoro-7,8-diazatricyclo[4.3.0.0^2,^4]nona-1(6),8-dien-7-yl]acetamide] | > 500 | 0.079 |
| COc1ccc(-c2ccc3c(=O)n(-c4ccc(Cl)c5c(NS(C)(=O)=O)nn(C)c45)c([C@H](Cc4cc(F)cc(F)c4)NC(=O)Cn4nc(C(F)F)c5c4C(F)(F)[C@@H]4C[C@H]54)nc3c2)nc1 (atropisomer, axis not shown; (P)) [Example 45, N—((S)-1-((3P)-3-(4-chloro-1-methyl-3-(methylsulfonamido)-1H-indazol-7-yl)-7-(5-methoxypyridin-2-yl)-4-oxo-3,4-dihydroquinazolin-2-yl)-2-(3,5-difluorophenyl)ethyl)-2-((3bS,4aR)-3-(difluoromethyl)-5,5-difluoro-3b,4,4a,5-tetrahydro-1H-cyclopropa[3,4]cyclopenta[1,2-c]pyrazol-1-yl)acetamide] | > 500 | 0.1 |
| CC(C)c1nccc(-c2ccc3c(=O)n(-c4ccc(Cl)c5c(NS(C)(=O)=O)nn(CC(F)(F)F)c45)c([C@H](Cc4cc(F)cc(F)c4)NC(=O)Cn4nc(C(F)F)c5c4C(F)(F)[C@@H]4C[C@H]54)nc3c2)n1 (atropisomer, axis not shown) [Example 108] | > 500 | 0.12 |
| Cn1nc(NS(C)(=O)=O)c2c(Cl)ccc(-n3c([C@H](Cc4cc(F)cc(F)c4)NC(=O)Cn4nc(C(F)F)c5c4C(F)(F)[C@@H]4C[C@H]54)nc4cc(-c5cc(S(C)(=O)=O)ccn5)ccc4c3=O)c21 (atropisomer, axis not shown; (P)) [Example 4, N—((S)-1-((3P)-3-(4-chloro-1-methyl-3-(methylsulfonamido)-1H-indazol-7-yl)-7-(4-(methylsulfonyl)pyridin-2-yl)-4-oxo-3,4-dihydroquinazolin-2-yl)-2-(3,5-difluorophenyl)ethyl)-2-((3bS,4aR)-3-(difluoromethyl)-5,5-difluoro-3b,4,4a,5-tetrahydro-1H-cyclopropa[3,4]cyclopenta[1,2-c]pyrazol-1-yl)acetamide] | > 500 | 0.053 |
| Cc1nnc(-c2ccc3c(=O)n(-c4ccc(Cl)c5c(NS(=O)(=O)C6CC6)nn(CC(F)F)c45)c([C@H](Cc4cc(F)cc(F)c4)NC(=O)Cn4nc(C(F)F)c5c4C(F)(F)[C@@H]4C[C@H]54)nc3c2)nc1C (atropisomer, axis not shown; (P)) [Example 87, N—((S)-1-((3P)-3-(4-chloro-3-(cyclopropanesulfonamido)-1-(2,2-difluoroethyl)-1H-indazol-7-yl)-7-(5,6-dimethyl-1,2,4-triazin-3-yl)-4-oxo-3,4-dihydroquinazolin-2-yl)-2-(3,5-difluorophenyl)ethyl)-2-((3bS,4aR)-3-(difluoromethyl)-5,5-difluoro-3b,4,4a,5-tetrahydro-1H-cyclopropa[3,4]cyclopenta[1,2-c]pyrazol-1-yl)acetamide] | > 500 | 0.058 |
| COc1ncc(-c2ccc3c(=O)n(-c4ccc(Cl)c5c(NS(C)(=O)=O)nn(C)c45)c([C@H](Cc4cc(F)cc(F)c4)NC(=O)Cn4nc(C(F)F)c5c4C(F)(F)[C@@H]4C[C@H]54)nc3c2)cn1 (atropisomer, axis not shown; (P)) [Example 39, N—((S)-1-((3P)-3-(4-chloro-1-methyl-3-(methylsulfonamido)-1H-indazol-7-yl)-7-(2-methoxypyrimidin-5-yl)-4-oxo-3,4-dihydroquinazolin-2-yl)-2-(3,5-difluorophenyl)ethyl)-2-((3bS,4aR)-3-(difluoromethyl)-5,5-difluoro-3b,4,4a,5-tetrahydro-1H-cyclopropa[3,4]cyclopenta[1,2-c]pyrazol-1-yl)acetamide] | > 500 | 0.042 |
| CCC(C)c1nccc(-c2ccc3c(=O)n(-c4ccc(Cl)c5c(NS(C)(=O)=O)nn(C)c45)c([C@H](Cc4cc(F)cc(F)c4)NC(=O)Cn4nc(C(F)F)c5c4C(F)(F)[C@@H]4C[C@H]54)nc3c2)n1 (stereo partly drawn) [Example 70, N-((1S)-1-(7-(2-(sec-butyl)pyrimidin-4-yl)-(3P)-3-(4-chloro-1-methyl-3-(methylsulfonamido)-1H-indazol-7-yl)-4-oxo-3,4-dihydroquinazolin-2-yl)-2-(3,5-difluorophenyl)ethyl)-2-((3bS,4aR)-3-(difluoromethyl)-5,5-difluoro-3b,4,4a,5-tetrahydro-1H-cyclopropa[3,4]cyclopenta[1,2-c]pyrazol-1-yl)acetamide] | > 500 | 0.26 |
| CN(c1ccc(-c2ccc3c(=O)n(-c4ccc(Cl)c5c(NS(=O)(=O)C6CC6)nn(CC(F)F)c45)c([C@H](Cc4cc(F)cc(F)c4)NC(=O)Cn4nc(C(F)F)c5c4C(F)(F)[C@@H]4C[C@H]54)nc3c2)cc1)S(C)(=O)=O (atropisomer, axis not shown) [Example 147, N-[(1S)-1-{3-[4-chloro-3-cyclopropanesulfonamido-1-(2,2-difluoroethyl)-1H-indazol-7-yl]-7-[4-(N-methylmethanesulfonamido)phenyl]-4-oxo-3,4-dihydroquinazolin-2-yl}-2-(3,5-difluorophenyl)ethyl]-2-[(2S,4R)-9-(difluoromethyl)-5,5-difluoro-7,8-diazatricyclo[4.3.0.0^2,^4]nona-1(6),8-dien-7-yl]acetamide] | > 500 | 0.34 |
| Cc1ccc(F)c(-c2ccc3c(=O)n(-c4ccc(Cl)c5c(NS(C)(=O)=O)nn(CC(F)(F)F)c45)c([C@H](Cc4cc(F)cc(F)c4)NC(=O)Cn4nc(C(F)F)c5c4C(F)(F)[C@@H]4C[C@H]54)nc3c2)n1 (atropisomer, axis not shown) [Example 113] | > 500 | 0.1 |
| Cn1nc(NS(C)(=O)=O)c2c(Cl)ccc(-n3c([C@H](Cc4cc(F)cc(F)c4)NC(=O)Cn4nc(C(F)F)c5c4C(F)(F)[C@@H]4C[C@H]54)nc4cc(-c5ccnc(C6CCC6)n5)ccc4c3=O)c21 (atropisomer, axis not shown; (P)) [Example 76, N—((S)-1-((3P)-3-(4-chloro-1-methyl-3-(methylsulfonamido)-1H-indazol-7-yl)-7-(2-cyclobutylpyrimidin-4-yl)-4-oxo-3,4-dihydroquinazolin-2-yl)-2-(3,5-difluorophenyl)ethyl)-2-((3bS,4aR)-3-(difluoromethyl)-5,5-difluoro-3b,4,4a,5-tetrahydro-1H-cyclopropa[3,4]cyclopenta[1,2-c]pyrazol-1-yl)acetamide] | > 500 | 0.18 |
| COc1ccc(-c2ccc3c(=O)n(-c4ccc(Cl)c5c(NS(C)(=O)=O)nn(CC(F)(F)F)c45)c([C@H](Cc4cc(F)cc(F)c4)NC(=O)Cn4nc(C(F)F)c5c4C(F)(F)[C@@H]4C[C@H]54)nc3c2)nn1 (atropisomer, axis not shown) [Example 110, N-[(1S)-1-{3-[4-chloro-3-methanesulfonamido-1-(2,2,2-trifluoroethyl)-1H-indazol-7-yl]-7-(6-methoxypyridazin-3-yl)-4-oxo-3,4-dihydroquinazolin-2-yl}-2-(3,5-difluorophenyl)ethyl]-2-[(2S,4R)-9-(difluoromethyl)-5,5-difluoro-7,8-diazatricyclo[4.3.0.0^2,^4]nona-1(6),8-dien-7-yl]acetamide] | > 500 | 0.071 |
| Cn1nc(NS(C)(=O)=O)c2c(Cl)ccc(-n3c([C@H](Cc4cc(F)cc(F)c4)NC(=O)Cn4nc(C(F)F)c5c4C(F)(F)[C@@H]4C[C@H]54)nc4cc(-c5ccccc5C(F)F)ccc4c3=O)c21 (atropisomer, axis not shown; (P)) [Example 12, N—((S)-1-((3P)-3-(4-chloro-1-methyl-3-(methylsulfonamido)-1H-indazol-7-yl)-7-(2-(difluoromethyl)phenyl)-4-oxo-3,4-dihydroquinazolin-2-yl)-2-(3,5-difluorophenyl)ethyl)-2-((3bS,4aR)-3-(difluoromethyl)-5,5-difluoro-3b,4,4a,5-tetrahydro-1H-cyclopropa[3,4]cyclopenta[1,2-c]pyrazol-1-yl)acetamide] | > 500 | 0.37 |
